Patent US20050250737A1, “Therapeutic ophthalmic compositions containing retinal friendly excipients and related methods” (Allergan, Inc., priority 2003, published 2005)
Where two headings read alike, the source gives them in different places. Blank lines part the entries; values can stand above or below the compound they belong to.

Tests used:
[1] = Osmolarity of excipient-containing incubating solutions; type: physicochemical
Experimental: Osmolarity was measured using osmometer type 13/13DR from Roebling (Berlin, GR).
(§1) For each concentration of tested compound, pH and osmolarity parameters were measured.

[2] = in vitro; details: human, Cell viability
Description: (§2) Cell viability and cell morphology were examined to evaluate the toxicity of excipients on retinal pigment epithelial cells. The human retina cell line used in these experiments is the ARPE-19 cell line (human adult-derived retinal pigmented epithelial cells). […] They form tight-junctions with transepithelial resistance of monolayers (Dunn K C et al., supra). From a molecular standpoint, it appears that ARPE-19 express a huge pattern of genes similar to those expressed by human RPE from fresh explant which could account for their physiological function (Klimanskaya I. et al., “Derivation and comparative assessment of retinal pigment epithelium from human embryonic stem cells using transcriptomics”, Cloning and Stem Cells, 2004, 6(3):217-45).
(§3) ARPE-19 cells are widely used as a retinal model that resemble physiological properties of RPE cells. Similar methods of culturing ARPE-19 cells and cytotoxicity assays can be found in Yeung et al., “Cytotoxicity of triamcinolone on cultured human retinal pigment epithelial cells: comparison with dexamethasone and hydrocortisone”, Jpn J. Ophthalmol, 2004; 48:236-242. Cell viability and cell morphology were examined using conventional colormetric and visual methods. Viability and morphology measurements were obtained at 24 hours, 48 hours, and 72 hours after exposure to an excipient composition.
(§4) To assess cell viability, mitochondrial metabolism was quantified through conventional colorometric assays (i.e., the MTT assay). This calorimetric assay utilizes 3-(4,5-dimethylthiazol-2-yl)-2,5-diphenyltetrazolium bromide (MTT) and correlates mitochondrial metabolism and cell viability through measurement of dehydrogenase activity which converts a substrate into crystal. More specifically, the assay measures the activity of living cells through mitochondrial dehydrogenases. When dissolved in culture cell medium, MTT solution appears dark orange. Mitochondrial dehydrogenases of viable cells degrade MTT by cleaving the tetrazolium ring yielding to formation of a purple formazan crystal, which is insoluble in water. Crystals are subsequently dissolved in isopropanol solution. A resulting purple solution is spectrophotometrically measured. Cell viability is relative to amount of formazan and calculated as a percentage of remaining treated compared to non-treated cells.
(§5) Results from the MTT assay were expressed as a percentage of cell viability calculated using the following equation: % cell viability=ODtest/ODcontrol×100.
(§6) For each experiment, one concentration was performed in triplicate. Each point was spectrophotometrically read twice. Average of readings was calculated, then average from these 3 values was determined.
(§7) After 3 experiments were independently completed under the same conditions, a graph was plotted with cell viability expressed as a function of concentration (dose response) and for various incubation period (time course). The IC50 was then estimated based on the graphed data.
(§8) More specifically, cell density in 24-multiwell plates was observed on the day of the experiment to check if confluence of the cells was reached. Aliquots of MTT concentrated solutions were removed from a freezer at −20° C. and thawed at room temperature. Cell medium was warmed at 37° C. before use. Appropriated tubes for diluting compounds were prepared. Higher concentrations of each excipient agent was prepared. Serial dilution was then performed in cell medium (DMEM:F12+10% FBS).
(§9) Cell culture medium in the 24-well plate was removed using vacuum-pump. Cells were then stimulated with 0.5 ml final volume for each concentration of one given excipient agent. Distribution of the excipient-containing solution was performed using automated pipet-aid in sterile environment (under PSM) or not depending on time of compounds and duration of incubation.
(§10) After stimulation, cells were replaced in a CO2 incubator for the required time of exposure.

[3] = tested on: ARPE-19 cells; assay: MTT cell viability assay on ARPE-19 cells; details: for Cell survival: 0.1% (w/v)
Description: as §2, §3, §4, §5, §6, §7, §8, §9, §10

[4] = pH of excipient-containing incubating solutions; type: physicochemical
Experimental: as §1

[5] = tested on: ARPE-19 cells; type: cell-based
Experimental: Cell morphology was visualized using light microscopy. Cell morphology observation using light microscopy permits determination of (i) cell number and density and (ii) whether or not cells in contact with an excipient agent display modified phenotype compared to a non-treated population of cells.
Cell morphology was analyzed in parallel by semi-quantitative scoring ranging from 5 to 1, from basal to lethal phenotype respectively, as shown in FIG. 23.
More specifically, cells were removed from an incubator for examination. Morphological shape of cells was visualized using a light microscope and CCD camera. Every 3 wells of a given concentration was observed through image analysis software. Then, a representative photograph describing the average appearance of cells was saved. The supernatant was either, kept for further predefined experiments to perform, or removed using vacuum-pump.
Resulting semi-quantitative scoring is represented as a function of time course and dose response. Score 5 : wild type phenotype of non-treated cells, 100% confluent adherent cells. This phenotype very much vary following post-seeding time. For example, at confluence ARPE-19 cells at 1 day appear well defined with visible outer membrane and dark grey cytoplasm. After 3 days of confluence, limits between cells become less visible and cells adopt a more hexagonal shape and constitute an epithelium-like uniform dense structure. Score 4: density <100%. Cell shape has changed, some spaces are present between cells, few cells possibly detached. Score 3: 80% <Cell density <40%. Spaces are sometimes present among cells, areas appears confluent while in others, cells detached. General cell shape starts showing non negligible alterations. Score 2: Cell density <50%. Cells adopt exclusively stressed appearance, presence of mass dead floating cells. Score 1: Cell density <10%. Presence of almost exclusively dead cells.
Based on quotation, each condition of the applied compound was given a score which allow to a morphology evolution profile to be prepared, ie. cell morphology as a function of compound concentration and time of exposure. […]

Compound: CCCCCCCC/C=C\CCCCCCCC(=O)OCCOCC(OCCO)C1OCC(OCCO)C1OCCO (stereo not shown) [Polysorbate 80, polysorbate 80]
Osmolarity of excipient dilution ([1]; 0.01% in culture medium): 310 mOsm
Osmolarity of excipient dilution ([1]; 0.02% in culture medium): 307 mOsm
Osmolarity of excipient dilution ([1]; 0.04% in culture medium): 313 mOsm
Osmolarity of excipient dilution ([1]; 0.06% in culture medium): 346 mOsm
Osmolarity of excipient dilution ([1]; 0.08% in culture medium): 390 mOsm
Osmolarity of excipient dilution ([1]; 0.1% in culture medium): 523 mOsm
viability at 24 h, 0.01 % ([2]; Mean (%)): 93.5%
viability at 24 h, 0.02 % ([2]; Mean (%)): 98.6%
viability at 24 h, 0.04 % ([2]; Mean (%)): 104%
viability at 24 h, 0.06 % ([2]; Mean (%)): 101%
viability at 24 h, 0.08 % ([2]; Mean (%)): 82.3%
viability at 24 h, 0.1 % ([2]; Mean (%)): 3.9%
viability at 48 h, 0.01 % ([2]; Mean (%)): 110%
viability at 48 h, 0.02 % ([2]; Mean (%)): 118%
viability at 48 h, 0.04 % ([2]; Mean (%)): 125%
viability at 48 h, 0.06 % ([2]; Mean (%)): 128%
viability at 48 h, 0.08 % ([2]; Mean (%)): 72.9%
viability at 48 h, 0.1 % ([2]; Mean (%)): 0.5%
viability at 72 h, 0.01 % ([2]; Mean (%)): 120%
viability at 72 h, 0.02 % ([2]; Mean (%)): 126%
viability at 72 h, 0.04 % ([2]; Mean (%)): 142%
viability at 72 h, 0.06 % ([2]; Mean (%)): 157%
viability at 72 h, 0.08 % ([2]; Mean (%)): 74.8%
viability at 72 h, 0.1 % ([2]; Mean (%)): 0.6%
viability at 24 h, 0.01 % ([2]; experiments 1, 2, 3): 90.3%
viability at 24 h, 0.02 % ([2]; experiments 1, 2, 3): 91.8%
viability at 48 h, 0.01 % ([2]; experiments 1, 2, 3): 109%
viability at 48 h, 0.02 % ([2]; experiments 1, 2, 3): 122%
viability at 48 h, 0.04 % ([2]; experiments 1, 2, 3): 126%
viability at 72 h, 0.01 % ([2]; experiments 1, 2, 3): 122%
viability at 72 h, 0.02 % ([2]; experiments 1, 2, 3): 129%
viability at 72 h, 0.04 % ([2]; experiments 1, 2, 3): 138%
viability at 72 h, 0.06 % ([2]; experiments 1, 2, 3): 148%
Cell survival [3]: substantially zero cell survival
Cell survival ([3]; listed as Tween80): lethality
pH of excipient dilution ([4]; 0.01% in culture medium): 7.5
pH of excipient dilution ([4]; 0.02% in culture medium): 7.6
pH of excipient dilution ([4]; 0.04% in culture medium): 7.5
pH of excipient dilution ([4]; 0.06% in culture medium): 7.5
pH of excipient dilution ([4]; 0.08% in culture medium): 7.5
pH of excipient dilution ([4]; 0.1% in culture medium): 7.6

Osmolarity of excipient dilution ([1]; 0.05% in culture medium): 293 mOsm
Osmolarity of excipient dilution ([1]; 0.1% in culture medium): 307 mOsm
Osmolarity of excipient dilution ([1]; 0.5% in culture medium): 347 mOsm
Osmolarity of excipient dilution ([1]; 1% in culture medium): 398 mOsm
Osmolarity of excipient dilution ([1]; 2% in culture medium): 493 mOsm
Osmolarity of excipient dilution ([1]; […] in culture medium): 444 mOsm
IC50 based on cell morphology ([5]; ARPE-19, estimated from morphology data): about 0.07%
Morphology limit concentration (%) ([5]; human): 0.07%
Cell morphology score, Mean ([5]; human, 24 h, 0.05 %): 3.3
Cell morphology score, Mean ([5]; human, 24 h, 0.1 %): 3.0
Cell morphology score, Mean ([5]; human, 24 h, 0.5 %): 1.0
Cell morphology score, Mean ([5]; human, 24 h, 1 %): 1.0
Cell morphology score, Mean ([5]; human, 24 h, 2 %): 1.0
Cell morphology score, Mean ([5]; human, 24 h, […]): 1.0
Cell morphology score, Mean ([5]; human, 48 h, 0.05 %): 3.7
Cell morphology score, Mean ([5]; human, 48 h, 0.1 %): 3.0
Cell morphology score, Mean ([5]; human, 48 h, 0.5 %): 1.0
Cell morphology score, Mean ([5]; human, 48 h, 1 %): 1.0
Cell morphology score, Mean ([5]; human, 48 h, 2 %): 1.0
Cell morphology score, Mean ([5]; human, 48 h, […]): 1.0
Cell morphology score, Mean ([5]; human, 72 h, 0.05 %): 3.3
Cell morphology score, Mean ([5]; human, 72 h, 0.1 %): 3.0
Cell morphology score, Mean ([5]; human, 72 h, 0.5 %): 1.0
Cell morphology score, Mean ([5]; human, 72 h, 1 %): 1.0
Cell morphology score, Mean ([5]; human, 72 h, 2 %): 1.0
Cell morphology score, Mean ([5]; human, 72 h, […]): 1.0
pH of excipient dilution ([4]; 0.05% in culture medium): 8
pH of excipient dilution ([4]; 0.1% in culture medium): 8.1
pH of excipient dilution ([4]; 0.5% in culture medium): 8
pH of excipient dilution ([4]; 1% in culture medium): 7.9
pH of excipient dilution ([4]; 2% in culture medium): 8
pH of excipient dilution ([4]; […] in culture medium): 7.9
Compound: OCc1ccccc1 [Benzyl alcohol, benzyl alcohol]
Living cells (observation) [5]: no living cells survived
MTT IC50 (%) ([3]; ARPE-19 cells, summary Table 3): 0.07%
Cell viability, experiments 1, 2, 3 ([3]; human, 72 h, 0.05 %): 50.8%

Compound: hyaluronic acid [HA]
Cell viability [3]: ~25%

Compound: hydroxypropylmethyl cellulose [HPMC]
Cell viability, experiment 3 [3]: 77.4%
Decrease of cell viability [3]: 20-40%
